Experimental data from ChEMBL document CHEMBL4765228, “Indole-like Trk receptor antagonists” (Eur J Med Chem, 2016).

Key:
[1] = molecular target: T1, High affinity nerve growth factor receptor (Homo sapiens, UniProt P04629); test: Inhibition of GAL4 fused TrkA (unknown origin) expressed in PC12 cells transfected with pFA2-Elk plasmid and pFR-luciferase plasmid measured for 18 hrs by luciferase reporter gene assay; format: cell-based, Rattus norvegicus, PC-12
[2] = molecular target: T1, High affinity nerve growth factor receptor; test: Inhibition of TrkA (unknown origin)
[3] = molecular target: T1, High affinity nerve growth factor receptor; test: Inhibition of GST-fused TrkA (unknown origin) expressed in SF9 cells using H2N-RRRAAAEEIYGEINH2 peptide as substrate preincubated with ATP and Mg and measured by microtiter plate reader analysis

T1 sequence (P04629 whole entry, the tested form may be a part): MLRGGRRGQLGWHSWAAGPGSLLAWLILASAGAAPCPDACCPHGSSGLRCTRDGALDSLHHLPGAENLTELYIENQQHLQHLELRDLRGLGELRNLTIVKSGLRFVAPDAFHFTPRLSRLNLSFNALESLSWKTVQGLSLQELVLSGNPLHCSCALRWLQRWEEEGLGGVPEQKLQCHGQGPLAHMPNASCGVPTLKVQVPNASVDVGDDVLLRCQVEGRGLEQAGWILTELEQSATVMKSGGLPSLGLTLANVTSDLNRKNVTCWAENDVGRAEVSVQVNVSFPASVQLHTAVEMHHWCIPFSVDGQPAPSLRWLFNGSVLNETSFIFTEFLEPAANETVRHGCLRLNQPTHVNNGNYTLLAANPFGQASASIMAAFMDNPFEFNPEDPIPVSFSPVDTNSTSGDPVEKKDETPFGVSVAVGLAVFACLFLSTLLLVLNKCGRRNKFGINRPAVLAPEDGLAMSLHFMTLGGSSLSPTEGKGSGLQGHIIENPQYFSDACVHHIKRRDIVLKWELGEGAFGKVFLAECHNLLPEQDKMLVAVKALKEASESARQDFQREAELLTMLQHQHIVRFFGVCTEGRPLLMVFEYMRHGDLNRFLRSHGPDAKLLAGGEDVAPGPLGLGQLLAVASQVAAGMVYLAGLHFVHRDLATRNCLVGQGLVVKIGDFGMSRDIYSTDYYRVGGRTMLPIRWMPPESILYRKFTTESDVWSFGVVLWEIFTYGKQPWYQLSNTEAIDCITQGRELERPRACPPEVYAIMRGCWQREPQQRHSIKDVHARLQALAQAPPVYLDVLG

IC50 [1] [nM]	IC50 [2] [nM]	IC50 [3] [nM]	Compound
366	5.22		NS(=O)(=O)c1ccc2c(c1)/C(=C/c1c[nH]c3ccc(O)cc13)C(=O)N2
		63	NS(=O)(=O)c1ccc(N/C=C2\C(=O)Nc3ccccc32)cc1
	> 10000		O=C1Nc2ccccc2/C1=C\c1c(Cl)[nH]c2ccccc12
998	25.7		Cn1cc(/C=C2\C(=O)Nc3ccccc32)c2ccccc21
342	11.1		NS(=O)(=O)c1ccc2c(c1)/C(=C/c1c[nH]c3ccccc13)C(=O)N2
	> 10000		Cc1[nH]c2ccccc2c1/C=C1\C(=O)Nc2ccccc21
